pIC50: −log10 of the molar value. Each block holds one molecule with its values, some of them ahead of it. Activity calls are given as the source filed them. The calls are words filed in the database; no cut-off is given here.
How the values were obtained:
MDA-MB-231 [1] = assay: Antiproliferative activity against triple-negative human MDA-MB-231 cells overexpressing c-Met assessed as inhibition of cell proliferation measured after 72 hrs by MTT assay; type: functional, cell-based; details: MDA-MB-231, 72 h
MDA-MB-468 = assay: Antiproliferative activity against triple-negative human MDA-MB-468 cells overexpressing c-Met assessed as inhibition of cell proliferation measured after 72 hrs by MTT assay; type: functional, cell-based; details: MDA-MB-468, 72 h
[2] = molecular target: T1, Hepatocyte growth factor receptor (Homo sapiens, UniProt P08581); assay: Inhibition of c-MET kinase domain (unknown origin) using Tyr6 peptide as substrate measured after 1 hr in presence of ATP by Z'-lyte kinase assay
[3] = molecular target: T1, Hepatocyte growth factor receptor; assay: Inhibition of c-MET in human MDA-MB-231 cells assessed as downregulation of activated phosphorylated paxillin level measured after 72 hrs in presence of HGF by immunoblot analysis; type: cell-based; details: dose 1-3 µM
MDA-MB-231 [4] = assay: cells; details: Homo sapiens, MDA-MB-231, 24 h
MCF-10A = assay: Cytotoxicity against human MCF-10A cells assessed as cell death at 1 to 15 uM measured after 24 hrs by MTT assay; type: cell-based; details: dose 1-15 µM
[5] = molecular target: T1, Hepatocyte growth factor receptor; assay: Inhibition of c-MET in human MDA-MB-231 cells assessed as downregulation of activated phosphorylated Akt level measured after 72 hrs in presence of HGF by immunoblot analysis; type: cell-based; details: dose 1-3 µM
[6] = molecular target: Receptor tyrosine-protein kinase erbB-2 (Homo sapiens) (UniProt P04626); assay: Inhibition of recombinant His-tagged human Erbb2 (676 to 1255 residues) expressed in baculovirus expression system at 10 uM by TR-FRET assay relative to control
[7] = molecular target: T1, Hepatocyte growth factor receptor; assay: Inhibition of recombinant N-terminal His-tagged human MET (956 to 1390 residues) expressed in baculovirus expression system at 10 uM by TR-FRET assay relative to control
[8] = molecular target: Insulin-like growth factor 1 receptor (Homo sapiens) (UniProt P08069); assay: Inhibition of recombinant C-terminal His-tagged human IGF1R (960 to 1397 residues) expressed in baculovirus expression system at 10 uM by TR-FRET assay relative to control
[9] = molecular target: Tyrosine-protein kinase ABL1 (Homo sapiens) (UniProt P00519); assay: Inhibition of recombinant full length His-tagged human ABL1 expressed in baculovirus expression system at 10 uM by TR-FRET assay relative to control
MDA-MB-231 [10] = assay: cells; details: Homo sapiens, MDA-MB-231, 23 h
MDA-MB-231 [11] = assay: Antitumor activity against GFP-tagged human MDA-MB-231 cells xenografted in athymic nude-Foxn1nu/Foxn1+ mouse assessed as the reduction in tumor growth at 10 mg/kg, ip dosed 3 times per week for 3 weeks treatment started 10 days of post inoculation digital caliper method relative to control; type: functional; details: MDA-MB-231, ip, 504 h, read-out: TGI
MDA-MB-231 [12] = assay: Antiinvasive activity against human MDA-MB-231 cells overexpressing c-Met assessed as inhibition of cell invasion at 2 uM measured after 24 hrs by Calcein AM dye based fluorescence assay; type: functional
T47D = assay: Antiproliferative activity against estrogen-dependent human T47D cells assessed as inhibition of cell proliferation measured after 72 hrs by MTT assay; type: functional, cell-based
Mus musculus = assay: Downregulation of phosphorylated c-Met level in tumor of athymic nude-Foxn1nu/Foxn1+ mouse xenografted with GFP-tagged human MDA-MB-231 cells at 10 mg/kg, ip dosed 3 times per week for 3 weeks treatment started 10 days of post inoculation by western blot analysis; type: functional, organism-based
BT-474 = assay: Antiproliferative activity against ER-positive human BT-474 cells overexpressing HER2 assessed as inhibition of cell proliferation measured after 72 hrs by MTT assay; type: functional, cell-based; details: BT-474, 72 h
[13] = molecular target: ALK tyrosine kinase receptor (Homo sapiens) (UniProt Q9UM73); assay: Inhibition of recombinant GST-tagged human ALK (1058 to 1620 residues) expressed in baculovirus expression system at 10 uM by TR-FRET assay relative to control
SK-BR-3 = assay: Antiproliferative activity against ER-deficient human SK-BR-3 cells overexpressing HER2 assessed as inhibition of cell proliferation measured after 72 hrs by MTT assay; type: functional, cell-based; details: SK-BR-3, 72 h
[14] = Cytotoxicity against human MCF-10A cells assessed as reduction in cell viability at 15 uM measured after 24 hrs by MTT assay relative to control; type: cell-based; details: read-out: INH
MDA-MB-231 [15] = assay: Cytotoxicity against human MDA-MB-231 cells assessed as induction of necrotic cell death by measuring LDH release at 0.5 to 8 uM measured after 24 hrs by LDH release assay; type: functional, cell-based; details: dose 0.5-8 µM
[16] = molecular target: Fibroblast growth factor receptor 1 (Homo sapiens) (UniProt P11362); assay: Inhibition of recombinant His-tagged human FGFR1 (308 to 731 residues) expressed in baculovirus expression system at 10 uM by TR-FRET assay relative to control
[17] = molecular target: T1, Hepatocyte growth factor receptor; assay: Inhibition of c-MET in human MDA-MB-231 cells assessed as downregulation of activated phosphorylated FAK level measured after 72 hrs in presence of HGF by immunoblot analysis; type: cell-based; details: dose 1-3 µM
[18] = Toxicity in athymic nude-Foxn1nu/Foxn1+ mouse assessed as effect on body weight at 10 mg/kg, ip dosed 3 times per week for 3 weeks treatment started 10 days of post inoculation; type: organism-based; details: in vivo, 504 h
[19] = molecular target: Proto-oncogene tyrosine-protein kinase ROS (Homo sapiens) (UniProt P08922); assay: Inhibition of recombinant GST-tagged human ROS1 (1883 to 2347 residues) expressed in baculovirus expression system at 10 uM by TR-FRET assay relative to control
[20] = molecular target: T1, Hepatocyte growth factor receptor; assay: Inhibition of c-MET in human MDA-MB-231 cells assessed as downregulation of activated phosphorylated mTOR level measured after 72 hrs in presence of HGF by immunoblot analysis; type: cell-based; details: dose 1-3 µM
[21] = molecular target: Macrophage-stimulating protein receptor (Homo sapiens) (UniProt Q04912); assay: Inhibition of recombinant GST-tagged human RON (983 to 1440 residues) expressed in baculovirus expression system at 10 uM by TR-FRET assay relative to control
[22] = molecular target: T1, Hepatocyte growth factor receptor; assay: Inhibition of c-MET in human MDA-MB-231 cells assessed as downregulation of activated phosphorylated c-MET level at 1 to 3 uM measured after 72 hrs in presence of HGF by immunoblot analysis; type: cell-based; details: dose 1-3 µM
[23] = molecular target: T1, Hepatocyte growth factor receptor; assay: Inhibition of c-MET in human MDA-MB-231 cells assessed as downregulation of activated phosphorylated MAPK level measured after 72 hrs in presence of HGF by immunoblot analysis; type: cell-based; details: dose 1-3 µM
[24] = molecular target: Epidermal growth factor receptor (Homo sapiens) (UniProt P00533); assay: Inhibition of recombinant GST-tagged human EGFR (668 to 1210 residues) expressed in baculovirus expression system at 10 uM by TR-FRET assay relative to control
MCF7 = assay: Antiproliferative activity against estrogen-dependent human MCF7 cells assessed as inhibition of cell proliferation measured after 72 hrs by MTT assay; type: functional, cell-based; details: MCF7, 72 h
[25] = molecular target: Tyrosine-protein kinase receptor UFO (Homo sapiens) (UniProt P30530); assay: Inhibition of recombinant His-tagged human AXL (473 to end residues) expressed in insect cells at 10 uM by TR-FRET assay relative to control
MDA-MB-231 [26] = assay: Antitumor activity against GFP-tagged human MDA-MB-231 cells xenografted in athymic nude-Foxn1nu/Foxn1+ mouse assessed as the tumor volume at 10 mg/kg, ip dosed 3 times per week for 3 weeks treatment started 10 days of post inoculation by digital caliper method (reference value: 2048 mm3); type: functional
[27] = molecular target: T1, Hepatocyte growth factor receptor; assay: Inhibition of c-MET in human MDA-MB-231 cells assessed as downregulation of activated phosphorylated c-MET level measured after 72 hrs in presence of HGF by immunoblot analysis; type: cell-based; details: dose 25-50 µM

T1 sequence (P08581 whole entry, the tested form may be a part): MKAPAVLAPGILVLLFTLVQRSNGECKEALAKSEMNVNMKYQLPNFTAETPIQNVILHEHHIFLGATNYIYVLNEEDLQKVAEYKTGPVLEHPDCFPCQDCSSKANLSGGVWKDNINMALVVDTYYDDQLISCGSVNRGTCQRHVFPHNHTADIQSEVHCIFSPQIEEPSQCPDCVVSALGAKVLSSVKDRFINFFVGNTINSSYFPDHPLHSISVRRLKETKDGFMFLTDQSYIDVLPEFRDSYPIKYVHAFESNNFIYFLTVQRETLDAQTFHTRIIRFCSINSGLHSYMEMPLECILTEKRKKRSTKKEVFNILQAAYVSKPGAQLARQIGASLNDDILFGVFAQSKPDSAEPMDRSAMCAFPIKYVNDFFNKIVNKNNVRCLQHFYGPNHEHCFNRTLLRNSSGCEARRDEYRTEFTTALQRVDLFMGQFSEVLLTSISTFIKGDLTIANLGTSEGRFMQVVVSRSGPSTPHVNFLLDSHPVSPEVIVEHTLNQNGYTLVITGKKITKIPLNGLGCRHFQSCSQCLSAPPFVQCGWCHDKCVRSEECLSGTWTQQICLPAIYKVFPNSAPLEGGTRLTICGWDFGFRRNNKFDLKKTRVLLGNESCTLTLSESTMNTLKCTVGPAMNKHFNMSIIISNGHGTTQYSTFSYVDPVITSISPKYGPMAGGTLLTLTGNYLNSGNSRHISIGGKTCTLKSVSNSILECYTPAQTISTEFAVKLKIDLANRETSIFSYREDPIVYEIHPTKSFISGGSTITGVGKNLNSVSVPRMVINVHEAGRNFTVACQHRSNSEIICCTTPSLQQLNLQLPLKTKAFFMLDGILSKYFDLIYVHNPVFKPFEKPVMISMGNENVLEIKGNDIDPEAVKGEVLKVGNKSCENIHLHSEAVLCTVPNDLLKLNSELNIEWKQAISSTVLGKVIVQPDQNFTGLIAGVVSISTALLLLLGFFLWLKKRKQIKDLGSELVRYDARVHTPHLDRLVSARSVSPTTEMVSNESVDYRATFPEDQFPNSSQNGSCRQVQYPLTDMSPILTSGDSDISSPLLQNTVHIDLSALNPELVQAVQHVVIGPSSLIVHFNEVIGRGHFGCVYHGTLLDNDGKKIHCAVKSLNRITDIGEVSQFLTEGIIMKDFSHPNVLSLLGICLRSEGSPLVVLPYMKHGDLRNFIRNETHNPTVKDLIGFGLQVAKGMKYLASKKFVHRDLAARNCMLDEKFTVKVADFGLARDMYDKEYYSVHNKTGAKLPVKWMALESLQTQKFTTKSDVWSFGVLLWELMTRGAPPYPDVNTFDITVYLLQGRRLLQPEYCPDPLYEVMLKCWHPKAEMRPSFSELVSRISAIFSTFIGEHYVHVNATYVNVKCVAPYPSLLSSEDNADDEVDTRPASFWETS
Sequence of ALK tyrosine kinase receptor (Homo sapiens) (Q9UM73 19-1620 limits assumed): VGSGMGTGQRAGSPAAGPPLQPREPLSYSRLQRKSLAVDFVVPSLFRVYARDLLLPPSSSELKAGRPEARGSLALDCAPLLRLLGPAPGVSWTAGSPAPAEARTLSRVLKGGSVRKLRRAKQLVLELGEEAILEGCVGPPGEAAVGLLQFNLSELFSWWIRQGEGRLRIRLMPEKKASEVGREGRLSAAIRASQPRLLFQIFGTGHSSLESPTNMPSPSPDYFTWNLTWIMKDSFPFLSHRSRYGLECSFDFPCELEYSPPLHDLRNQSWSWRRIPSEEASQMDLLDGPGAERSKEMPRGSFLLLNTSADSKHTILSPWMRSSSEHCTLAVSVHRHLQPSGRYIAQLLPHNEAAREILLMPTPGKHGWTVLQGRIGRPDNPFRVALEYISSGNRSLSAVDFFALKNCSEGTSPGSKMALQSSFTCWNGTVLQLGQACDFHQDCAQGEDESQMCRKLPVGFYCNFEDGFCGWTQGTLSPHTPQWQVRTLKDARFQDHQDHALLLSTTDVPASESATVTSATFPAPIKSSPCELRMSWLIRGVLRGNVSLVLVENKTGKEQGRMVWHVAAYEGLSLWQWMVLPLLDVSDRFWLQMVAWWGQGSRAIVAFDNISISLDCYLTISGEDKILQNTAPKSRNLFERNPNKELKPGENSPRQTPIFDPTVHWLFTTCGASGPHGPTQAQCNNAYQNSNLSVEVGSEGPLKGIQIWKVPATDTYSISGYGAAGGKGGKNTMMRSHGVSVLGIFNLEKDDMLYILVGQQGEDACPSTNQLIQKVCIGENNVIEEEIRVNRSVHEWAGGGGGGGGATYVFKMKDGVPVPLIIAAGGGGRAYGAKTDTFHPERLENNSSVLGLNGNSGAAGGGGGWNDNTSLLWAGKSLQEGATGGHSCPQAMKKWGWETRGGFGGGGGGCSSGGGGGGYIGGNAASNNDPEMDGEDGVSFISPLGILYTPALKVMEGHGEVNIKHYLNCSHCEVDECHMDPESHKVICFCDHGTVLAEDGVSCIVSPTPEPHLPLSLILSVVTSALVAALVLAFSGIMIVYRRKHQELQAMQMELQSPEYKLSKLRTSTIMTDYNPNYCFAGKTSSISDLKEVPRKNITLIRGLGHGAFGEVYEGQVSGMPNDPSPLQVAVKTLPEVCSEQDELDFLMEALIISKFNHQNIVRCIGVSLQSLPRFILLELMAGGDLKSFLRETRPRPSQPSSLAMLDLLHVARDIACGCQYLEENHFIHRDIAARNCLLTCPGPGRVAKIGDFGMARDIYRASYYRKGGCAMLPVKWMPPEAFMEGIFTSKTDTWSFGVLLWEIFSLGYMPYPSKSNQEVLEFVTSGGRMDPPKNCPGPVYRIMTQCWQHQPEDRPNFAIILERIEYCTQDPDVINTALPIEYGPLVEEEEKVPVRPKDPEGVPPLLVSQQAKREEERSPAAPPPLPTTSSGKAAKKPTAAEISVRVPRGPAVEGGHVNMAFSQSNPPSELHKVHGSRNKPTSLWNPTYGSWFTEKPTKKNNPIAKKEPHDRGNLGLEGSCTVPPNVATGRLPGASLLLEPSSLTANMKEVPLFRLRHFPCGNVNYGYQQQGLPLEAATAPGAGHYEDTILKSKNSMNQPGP
Sequence of Tyrosine-protein kinase ABL1 (Homo sapiens) (P00519 whole entry): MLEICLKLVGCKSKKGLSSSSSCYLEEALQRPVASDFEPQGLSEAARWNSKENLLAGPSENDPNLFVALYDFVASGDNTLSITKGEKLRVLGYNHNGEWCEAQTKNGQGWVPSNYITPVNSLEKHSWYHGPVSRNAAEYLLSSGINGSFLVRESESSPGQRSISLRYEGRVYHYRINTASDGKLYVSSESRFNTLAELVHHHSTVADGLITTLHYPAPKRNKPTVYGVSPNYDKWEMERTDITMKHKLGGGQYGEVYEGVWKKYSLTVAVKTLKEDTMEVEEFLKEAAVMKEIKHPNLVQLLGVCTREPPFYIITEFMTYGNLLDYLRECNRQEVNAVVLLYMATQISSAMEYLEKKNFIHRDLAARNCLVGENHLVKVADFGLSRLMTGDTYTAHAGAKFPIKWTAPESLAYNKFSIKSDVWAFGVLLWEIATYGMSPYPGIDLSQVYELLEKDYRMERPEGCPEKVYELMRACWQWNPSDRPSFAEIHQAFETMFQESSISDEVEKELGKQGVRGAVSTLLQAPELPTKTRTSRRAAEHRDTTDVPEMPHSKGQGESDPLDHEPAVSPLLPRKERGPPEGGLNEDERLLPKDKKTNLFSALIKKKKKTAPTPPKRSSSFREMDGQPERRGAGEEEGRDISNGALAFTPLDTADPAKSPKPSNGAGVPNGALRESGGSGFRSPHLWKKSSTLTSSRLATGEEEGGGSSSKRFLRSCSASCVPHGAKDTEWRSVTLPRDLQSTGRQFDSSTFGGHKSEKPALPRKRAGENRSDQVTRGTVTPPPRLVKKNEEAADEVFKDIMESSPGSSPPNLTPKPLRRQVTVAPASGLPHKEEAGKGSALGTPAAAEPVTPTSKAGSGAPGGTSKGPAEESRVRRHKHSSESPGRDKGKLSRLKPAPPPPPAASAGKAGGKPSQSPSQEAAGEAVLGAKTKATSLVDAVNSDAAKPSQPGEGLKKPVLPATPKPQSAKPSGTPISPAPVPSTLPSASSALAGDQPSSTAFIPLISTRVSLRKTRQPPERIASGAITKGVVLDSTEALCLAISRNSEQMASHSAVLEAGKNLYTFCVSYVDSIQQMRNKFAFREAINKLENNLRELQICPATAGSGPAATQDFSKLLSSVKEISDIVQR
Sequence of Tyrosine-protein kinase receptor UFO (Homo sapiens) (P30530 whole entry): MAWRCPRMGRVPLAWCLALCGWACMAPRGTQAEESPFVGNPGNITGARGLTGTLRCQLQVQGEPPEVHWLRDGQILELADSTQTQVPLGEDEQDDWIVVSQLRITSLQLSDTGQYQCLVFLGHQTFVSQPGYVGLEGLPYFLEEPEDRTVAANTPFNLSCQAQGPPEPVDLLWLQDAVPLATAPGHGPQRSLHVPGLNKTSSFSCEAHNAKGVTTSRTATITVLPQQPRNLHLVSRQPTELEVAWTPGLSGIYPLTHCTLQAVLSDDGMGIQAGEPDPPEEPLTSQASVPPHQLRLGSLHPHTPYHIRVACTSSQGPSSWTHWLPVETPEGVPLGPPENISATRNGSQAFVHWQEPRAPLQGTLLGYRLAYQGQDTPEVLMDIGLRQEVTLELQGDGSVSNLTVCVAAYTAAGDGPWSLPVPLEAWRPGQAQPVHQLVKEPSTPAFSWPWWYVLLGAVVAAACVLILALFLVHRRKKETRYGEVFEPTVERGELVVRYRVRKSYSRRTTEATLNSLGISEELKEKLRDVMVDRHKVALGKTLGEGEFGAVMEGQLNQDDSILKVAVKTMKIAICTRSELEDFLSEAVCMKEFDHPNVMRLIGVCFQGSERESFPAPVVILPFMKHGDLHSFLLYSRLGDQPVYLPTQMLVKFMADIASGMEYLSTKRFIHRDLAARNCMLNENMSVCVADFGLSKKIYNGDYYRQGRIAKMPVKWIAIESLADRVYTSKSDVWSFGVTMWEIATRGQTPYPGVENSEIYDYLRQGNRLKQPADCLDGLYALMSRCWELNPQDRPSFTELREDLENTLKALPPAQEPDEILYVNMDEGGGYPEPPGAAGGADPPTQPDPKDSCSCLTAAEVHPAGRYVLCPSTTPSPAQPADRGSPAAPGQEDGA

pIC50 (MDA-MB-231 [1]): 5.05
pIC50 (MDA-MB-468): 4.94
SMILES: C/C1=C\[C@H](OC(=O)Nc2ccc(C(F)(F)F)cc2)C[C@](C)(O)/C=C/[C@H](C(C)C)CC/C(C)=C/CC1

pIC50 (MDA-MB-231 [1]): 4.56
pIC50 (MDA-MB-468): 4.55
SMILES: C/C1=C\[C@H](OC(=O)Nc2cccc(C)c2)C[C@](C)(O)/C=C/[C@H](C(C)C)CC/C(C)=C/CC1

pIC50 [2]: 5.54
pIC50 (MDA-MB-231 [1]): 5.28
pIC50 (MDA-MB-468): 5.18
SMILES: C/C1=C\[C@H](OC(=O)Nc2cc(Cl)cc(Cl)c2)C[C@](C)(O)/C=C/[C@H](C(C)C)CC/C(C)=C/CC1

pIC50 (MDA-MB-231 [1]): 4.97
pIC50 (MDA-MB-468): 4.91
SMILES: C/C1=C\[C@H](OC(=O)Nc2c(Cl)cccc2Cl)C[C@](C)(O)/C=C/[C@H](C(C)C)CC/C(C)=C/CC1

pIC50 (MDA-MB-231 [1]): 4.70
pIC50 (MDA-MB-468): 4.64
SMILES: C/C1=C\[C@H](OC(=O)Nc2ccccc2)C[C@](C)(O)/C=C/[C@H](C(C)C)CC/C(C)=C/CC1

pIC50 (MDA-MB-231 [1]): 4.79
pIC50 (MDA-MB-468): 4.75
SMILES: C/C1=C\[C@H](OC(=O)Nc2ccccc2F)C[C@](C)(O)/C=C/[C@H](C(C)C)CC/C(C)=C/CC1

SMILES: C/C1=C\[C@H](OC(=O)Nc2cc(C(F)(F)F)cc(C(F)(F)F)c2)C[C@](C)(O)/C=C/[C@H](C(C)C)CC/C(C)=C/CC1
inhibition [3]: Dose-dependent effect
pIC50 (MDA-MB-231 [4]): 5.77
Activity (MCF-10A): Non-Toxic
pIC50 [2]: 5.96
inhibition [2]: Dose-dependent effect
inhibition [5]: Dose-dependent effect
inhibition [6]: 22%
inhibition [7]: 84%
inhibition [8]: 30%
inhibition [9]: 31%
pIC50 (MDA-MB-231 [1]): 5.89
pIC50 (MDA-MB-231 [10]): 5.85
inhibition in vivo at 10 mg/kg (MDA-MB-231 [11]): 66.7%
Activity (MDA-MB-231 [12]): Active
pIC50 (T47D): 4.95
inhibition (Mus musculus): Active
pIC50 (BT-474): 5.41
inhibition [13]: 10%
pIC50 (SK-BR-3): 5.33
cytotoxicity at 24 h, 15 µM [14]: 8.3%
Activity (MDA-MB-231 [15]): Active
inhibition [16]: 49%
inhibition [17]: Dose-dependent effect
Activity [18]: Non-Toxic
inhibition [19]: 3%
pIC50 (MDA-MB-468): 5.68
inhibition [20]: Dose-dependent effect
inhibition [21]: 31%
inhibition [22]: Dose-dependent effect
inhibition [23]: Dose-dependent effect
inhibition [24]: 9%
pIC50 (MCF7): 5.14
inhibition [25]: 11%
Activity (MDA-MB-231 [26]): 716 mm3

pIC50 (MDA-MB-231 [1]): 5.07
pIC50 (MDA-MB-468): 4.97
SMILES: C/C1=C\[C@H](OC(=O)Nc2ccc(Cl)c(Cl)c2)C[C@](C)(O)/C=C/[C@H](C(C)C)CC/C(C)=C/CC1

pIC50 (MDA-MB-231 [1]): 4.42
pIC50 (MDA-MB-468): 4.40
SMILES: C/C1=C\[C@H](OC(=O)NC2CCCCC2)C[C@](C)(O)/C=C/[C@H](C(C)C)CC/C(C)=C/CC1

pIC50 [2]: 5.74
pIC50 (MDA-MB-231 [1]): 5.31
pIC50 (MDA-MB-468): 5.24
SMILES: C/C1=C\[C@H](OC(=O)Nc2cccc(C(F)(F)F)c2)C[C@](C)(O)/C=C/[C@H](C(C)C)CC/C(C)=C/CC1

pIC50 (MDA-MB-231 [1]): < 4.30
pIC50 (MDA-MB-468): < 4.30
SMILES: C/C1=C\[C@H](OC(=O)Nc2cccc3ccccc23)C[C@](C)(O)/C=C/[C@H](C(C)C)CC/C(C)=C/CC1

pIC50 (MDA-MB-231 [1]): 4.58
pIC50 (MDA-MB-468): 4.59
SMILES: CCc1ccc(NC(=O)O[C@H]2/C=C(\C)CC/C=C(\C)CC[C@@H](C(C)C)/C=C/[C@@](C)(O)C2)cc1

pIC50 (MDA-MB-231 [1]): < 4.30
pIC50 (MDA-MB-468): < 4.30
SMILES: C/C1=C\[C@H](OC(=O)Nc2ccc(-c3ccccc3)cc2)C[C@](C)(O)/C=C/[C@H](C(C)C)CC/C(C)=C/CC1

pIC50 (MDA-MB-231 [1]): 4.79
pIC50 (MDA-MB-468): 4.71
SMILES: C/C1=C\[C@H](OC(=O)Nc2cccc(F)c2)C[C@](C)(O)/C=C/[C@H](C(C)C)CC/C(C)=C/CC1

pIC50 (MDA-MB-231 [1]): 4.86
pIC50 (MDA-MB-468): 4.84
SMILES: C/C1=C\[C@H](OC(=O)Nc2ccccc2Cl)C[C@](C)(O)/C=C/[C@H](C(C)C)CC/C(C)=C/CC1

pIC50 [2]: 4.65
inhibition [27]: Dose-dependent effect
SMILES: C/C1=C\[C@H](O)C[C@](C)(O)/C=C/[C@H](C(C)C)CC/C(C)=C/CC1

pIC50 (MDA-MB-231 [1]): 4.98
pIC50 (MDA-MB-468): 4.81
SMILES: C/C1=C\[C@H](OC(=O)Nc2ccc(Cl)cc2Cl)C[C@](C)(O)/C=C/[C@H](C(C)C)CC/C(C)=C/CC1

pIC50 [2]: 5.47
pIC50 (MDA-MB-231 [1]): 5.04
pIC50 (MDA-MB-468): 4.97
SMILES: C/C1=C\[C@H](OC(=O)Nc2cccc(Cl)c2)C[C@](C)(O)/C=C/[C@H](C(C)C)CC/C(C)=C/CC1

pIC50 (MDA-MB-231 [1]): 4.87
pIC50 (MDA-MB-468): 4.89
SMILES: C/C1=C\[C@H](OC(=O)Nc2ccc(Cl)cc2)C[C@](C)(O)/C=C/[C@H](C(C)C)CC/C(C)=C/CC1

Source: ChEMBL document CHEMBL4715771 (Bioorg Med Chem, 2016)
